The record followed here is ChEMBL document CHEMBL4000232, “Structure-based optimization of 1H-imidazole-2-carboxamides as Axl kinase inhibitors utilizing a Mer mutant surrogate” (Bioorg Med Chem Lett, 2017).

One data set addresses hERG (KCNH2) (Homo sapiens, UniProt Q12809). In words: Inhibition of human ERG at 10 uM relative to control.
A short description of data set [1]: Permeability of the compound by PAMPA. Conditions: read-out: permeability. The class given is physicochemical. (In general: The PAMPA barrier holds no transporters, so it reflects passive diffusion.)
Data set [2] is described as follows: Oral bioavailability in rat. It is filed as ADME, organism-based. The settings on record: in vivo.
A short description of data set [3]: Clearance in rat. It is filed as ADME. The settings on record: in vivo.
The nature of data set [4]: Extraction ratio in human hepatic microsomes. The class given is ADME, Microsome. The settings on record: liver microsomes, read-out: ERH.
Data set [5] can be described thus: Extraction ratio in rat hepatic microsomes. It is filed as ADME, Microsome. Conditions: liver microsomes, read-out: ERH. A general note: Liver microsomes are vesicles of endoplasmic reticulum, rich in cytochrome P450 enzymes.
Data set [6] has as its target T1, Tyrosine-protein kinase receptor UFO (Homo sapiens, UniProt P30530).
T1 sequence (P30530 whole entry): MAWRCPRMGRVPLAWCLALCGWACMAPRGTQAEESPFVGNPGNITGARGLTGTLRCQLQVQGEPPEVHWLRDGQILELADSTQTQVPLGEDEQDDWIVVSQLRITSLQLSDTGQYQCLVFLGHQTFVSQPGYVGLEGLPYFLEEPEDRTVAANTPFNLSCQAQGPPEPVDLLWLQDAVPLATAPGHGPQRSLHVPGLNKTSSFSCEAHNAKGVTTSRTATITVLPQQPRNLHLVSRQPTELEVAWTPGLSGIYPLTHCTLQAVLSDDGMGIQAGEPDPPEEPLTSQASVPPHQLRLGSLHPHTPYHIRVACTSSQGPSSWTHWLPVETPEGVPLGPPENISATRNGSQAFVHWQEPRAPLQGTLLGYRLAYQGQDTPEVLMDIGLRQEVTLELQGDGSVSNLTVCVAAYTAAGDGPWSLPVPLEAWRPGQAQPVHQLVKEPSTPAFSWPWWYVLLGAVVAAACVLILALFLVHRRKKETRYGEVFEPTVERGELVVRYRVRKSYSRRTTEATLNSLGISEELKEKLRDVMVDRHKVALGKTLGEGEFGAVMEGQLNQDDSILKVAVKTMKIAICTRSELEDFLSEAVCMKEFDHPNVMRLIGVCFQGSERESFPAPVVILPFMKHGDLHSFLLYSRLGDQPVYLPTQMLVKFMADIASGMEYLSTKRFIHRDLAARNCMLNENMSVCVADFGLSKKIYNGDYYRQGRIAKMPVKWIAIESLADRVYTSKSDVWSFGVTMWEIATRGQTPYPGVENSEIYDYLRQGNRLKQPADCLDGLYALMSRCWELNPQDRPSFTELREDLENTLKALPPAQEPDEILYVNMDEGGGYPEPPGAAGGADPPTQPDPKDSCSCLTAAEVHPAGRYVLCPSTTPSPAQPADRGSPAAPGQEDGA
As to the kind of experiment: Inhibition of Axl (unknown origin).

For the next data set, the system named is Liver. As to the kind of experiment: Intrinsic clearance in rat liver microsomes. It is filed as ADME, microsome.
Data set [7] is described as follows: Protein binding in human plasma. The class given is ADME, cell-free. The settings on record: read-out: PPB (converted).
Another data set relates to HepG2. In words: Cytotoxicity against human HepG2 cells. The class given is functional.
Data set [8] is described as follows: Inhibition of CYP450 (unknown origin). The settings on record: human. The class given is ADME.
Data set [9] in a line: Protein binding in rat plasma. It is filed as ADME, cell-free. Conditions: read-out: PPB (converted).

pIC50: −log10 of the molar value.

hERG (KCNH2), sequence (Q12809 whole entry, the tested form may be a part): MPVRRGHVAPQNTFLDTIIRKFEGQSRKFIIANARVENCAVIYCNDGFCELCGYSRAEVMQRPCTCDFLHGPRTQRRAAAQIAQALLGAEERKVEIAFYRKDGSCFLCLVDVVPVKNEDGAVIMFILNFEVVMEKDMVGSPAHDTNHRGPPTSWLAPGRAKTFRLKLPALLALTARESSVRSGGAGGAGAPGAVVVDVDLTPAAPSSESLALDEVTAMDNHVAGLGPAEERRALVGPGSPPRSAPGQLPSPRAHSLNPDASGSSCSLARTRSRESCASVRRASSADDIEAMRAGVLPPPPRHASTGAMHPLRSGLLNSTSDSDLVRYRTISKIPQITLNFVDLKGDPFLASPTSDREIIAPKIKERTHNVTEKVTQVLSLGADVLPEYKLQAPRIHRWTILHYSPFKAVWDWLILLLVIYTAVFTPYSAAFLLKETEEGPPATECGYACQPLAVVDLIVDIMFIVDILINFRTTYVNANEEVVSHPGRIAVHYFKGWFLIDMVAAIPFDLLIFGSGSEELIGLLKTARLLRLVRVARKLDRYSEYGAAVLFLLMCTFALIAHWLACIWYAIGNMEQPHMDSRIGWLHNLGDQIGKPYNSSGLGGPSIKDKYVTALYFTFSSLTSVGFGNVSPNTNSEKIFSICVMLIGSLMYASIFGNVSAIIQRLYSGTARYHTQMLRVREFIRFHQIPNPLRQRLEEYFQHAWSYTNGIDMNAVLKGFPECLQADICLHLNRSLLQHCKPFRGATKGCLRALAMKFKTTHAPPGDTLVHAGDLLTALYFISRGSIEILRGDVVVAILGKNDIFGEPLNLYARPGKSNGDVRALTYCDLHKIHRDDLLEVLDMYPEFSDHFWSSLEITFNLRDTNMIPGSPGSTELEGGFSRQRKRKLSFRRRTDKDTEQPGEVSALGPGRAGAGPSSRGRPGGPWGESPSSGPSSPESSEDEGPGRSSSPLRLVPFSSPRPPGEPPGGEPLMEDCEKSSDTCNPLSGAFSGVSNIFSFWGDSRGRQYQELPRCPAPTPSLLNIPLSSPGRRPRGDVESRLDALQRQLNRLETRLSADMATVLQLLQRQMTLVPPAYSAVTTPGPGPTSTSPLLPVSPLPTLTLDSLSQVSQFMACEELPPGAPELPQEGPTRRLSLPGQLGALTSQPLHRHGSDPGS

`CS(=O)(=O)N1CCC[C@H](c2csc(-c3ccccc3NC(=O)c3ncc[nH]3)n2)C1`: 10 µM produced 94% inhibition against hERG (KCNH2). Also, in [1], the Papp came out at 15.7 ×10⁻⁶ cm/s. The bioavailability (in general, dose-corrected exposure relative to a reference, in per cent) in [2] amounted to 13%. The clearance (commonly a measure of how efficiently the substance is removed, as volume per time) in [3] amounted to 20 mL/min/kg.
For `CS(=O)(=O)N1CCC[C@H](c2csc(-c3ccccc3NC(=O)c3nc4ccccc4[nH]3)n2)C1`, the hepatic extraction ratio was 0.86 in data set [4] and 0.87 in data set [5]. The pIC50 – broadly, the negative decadic logarithm of the IC50, by convention in mol/L – in [6] is < 6.00.
Taken in the same sequence, the figures for `COC(=O)N1CCC[C@H](c2csc(-c3ccccc3NC(=O)c3ncc[nH]3)n2)C1` were 0.75, 0.69 and < 6.00.
Taken in the same sequence, the figures for `CS(=O)(=O)N1CCC[C@H](c2csc(-c3ccccc3NC(=O)c3cnc[nH]3)n2)C1` were 0.9, 0.71 and < 6.00.
On to `CS(=O)(=O)N1CCO[C@H](c2csc(-c3cc(N4CCOCC4)ccc3NC(=O)c3ncc[nH]3)n2)C1`, for which, on hERG (KCNH2), the inhibition (in general, the percentage by which the read-out fell short of the control) at 10 µM was 19%. The Papp in data set [1] was 18.4 ×10⁻⁶ cm/s. Further, the CLH with Liver came out at 35 mL/min/kg. The fraction unbound is 0.21 in data set [7] and 0.1 in data set [9]. In addition, the Activity in the data set on HepG2 was found to be 14 µM. In data set [8], the “inhibition (INH)” value was > 16%. In data set [2], this compound gave a bioavailability of 38%. Besides, in [3], the clearance is 54 mL/min/kg.
Take `CC(=O)N1CCC[C@H](c2csc(-c3ccccc3NC(=O)c3ncc[nH]3)n2)C1`: the hepatic extraction ratio in [4] was found to be 0.78; in [5] it was 0.67. Further, in data set [6], the pIC50 was < 6.00.
As for `CCS(=O)(=O)N1CCC[C@H](c2csc(-c3ccccc3NC(=O)c3ncc[nH]3)n2)C1`, the hepatic extraction ratio was found to be 0.95 in [4] and 0.86 in [5]. In data set [6], the pIC50 was < 6.20.
